# Experimental data reported in ChEMBL document CHEMBL2321848, “Optimization of benzyloxazoles as non-nucleoside inhibitors of HIV-1 reverse transcriptase to enhance Y181C potency” (Bioorg Med Chem Lett, 2013).
# System: Human immunodeficiency virus 1
# Assay: Antiviral activity against multidrug resistant HIV1 IIIB containing reverse transcriptase K103N and Y181C mutation infected in human MT2 cells assessed as cytoprotection from infection by MTT colorimetric method
# Format: functional, organism-based
# Details: Human immunodeficiency virus 1, IIIB, MT2; read-out: EC50; call rule not given here
row,SMILES,EC50 [µM]
1,Cc1cc(F)c(Cc2cnc(Nc3ccc(C#N)c(Cl)c3)o2)c(F)c1,7.2
2,CCOc1cc(F)c(Cc2cnc(Nc3ccc(C#N)c(Cl)c3)o2)c(F)c1,0.75
3,CCc1cc(F)c(Cc2cnc(Nc3ccc(C#N)c(Cl)c3)o2)c(F)c1,0.21
4,CCc1cc(F)c(Cc2cnc(Nc3ccc(Oc4cccnc4)c(Cl)c3)o2)c(F)c1,0.8
5,COCc1cc(F)c(Cc2cnc(Nc3ccc(C#N)c(Cl)c3)o2)c(F)c1,6.3
6,N#Cc1ccc(Nc2ncc(Cc3c(F)cc(CC4CC4)cc3F)o2)cc1Cl,15
7,CCC(C)c1cc(F)c(Cc2cnc(Nc3ccc(C#N)c(Cl)c3)o2)c(F)c1 (racemic),2.8
8,N#Cc1ccc(Nc2ncc(Cc3c(F)cc(C4CC4)cc3F)o2)cc1Cl,10.7
9,CC(C)c1cc(F)c(Cc2cnc(Nc3ccc(C#N)c(Cl)c3)o2)c(F)c1,0.12

# Same assay, conditions: mt2
row,SMILES,EC50
1,N#Cc1ccc(Nc2ncc(Cc3c(F)cc(F)cc3F)o2)cc1Cl,Not Active
2,Cc1ccnc2c1NC(=O)c1cccnc1N2C1CC1 [NEVIRAPINE],Not Active
3,N#Cc1ccc(Nc2ncc(Cc3c(F)cccc3F)o2)cc1,Not Active
4,CC(C)(C)c1cc(Cl)c(Cc2cnc(Nc3ccc(C#N)c(Cl)c3)o2)c(Cl)c1,Not Active

# System: Human immunodeficiency virus 1
# Assay: microbe, parasite or virus in culture
# Details: Human immunodeficiency virus 1, IIIB, MT2
# Description: Antiviral activity against multidrug resistant HIV1 IIIB containing reverse transcriptase infected in human MT2 cells assessed as cytoprotection from infection by MTT colorimetric method
row,SMILES,EC50 [µM]
1,Cc1cc(F)c(Cc2cnc(Nc3ccc(C#N)c(Cl)c3)o2)c(F)c1,0.011
2,CCOc1cc(F)c(Cc2cnc(Nc3ccc(C#N)c(Cl)c3)o2)c(F)c1,0.028
3,N#Cc1ccc(Nc2ncc(Cc3c(F)cc(F)cc3F)o2)cc1Cl,0.0091
4,CCc1cc(F)c(Cc2cnc(Nc3ccc(C#N)c(Cl)c3)o2)c(F)c1,0.0013
5,CCc1cc(F)c(Cc2cnc(Nc3ccc(Oc4cccnc4)c(Cl)c3)o2)c(F)c1,0.005
6,COCc1cc(F)c(Cc2cnc(Nc3ccc(C#N)c(Cl)c3)o2)c(F)c1,0.0036
7,N#Cc1ccc(Nc2ncc(Cc3c(F)cc(CC4CC4)cc3F)o2)cc1Cl,0.068
8,CCC(C)c1cc(F)c(Cc2cnc(Nc3ccc(C#N)c(Cl)c3)o2)c(F)c1 (racemic),0.12
9,N#Cc1ccc(Nc2ncc(Cc3c(F)cc(C4CC4)cc3F)o2)cc1Cl,0.024
10,CC(C)c1cc(F)c(Cc2cnc(Nc3ccc(C#N)c(Cl)c3)o2)c(F)c1,0.0052
11,CC(C)(C)c1cc(Cl)c(Cc2cnc(Nc3ccc(C#N)c(Cl)c3)o2)c(Cl)c1,1.3

# System: Human immunodeficiency virus 1
# Assay: Antiviral activity against multidrug resistant HIV1 IIIB containing reverse transcriptase Y181C mutation infected in human MT2 cells assessed as cytoprotection from infection by MTT colorimetric method
# Format: functional, organism-based
# Details: Human immunodeficiency virus 1, IIIB, MT2; read-out: EC50
row,SMILES,EC50 [µM]
1,Cc1cc(F)c(Cc2cnc(Nc3ccc(C#N)c(Cl)c3)o2)c(F)c1,0.21
2,CCOc1cc(F)c(Cc2cnc(Nc3ccc(C#N)c(Cl)c3)o2)c(F)c1,0.048
3,N#Cc1ccc(Nc2ncc(Cc3c(F)cc(F)cc3F)o2)cc1Cl,0.91
4,CCc1cc(F)c(Cc2cnc(Nc3ccc(C#N)c(Cl)c3)o2)c(F)c1,0.0069
5,CCc1cc(F)c(Cc2cnc(Nc3ccc(Oc4cccnc4)c(Cl)c3)o2)c(F)c1,0.06
6,COCc1cc(F)c(Cc2cnc(Nc3ccc(C#N)c(Cl)c3)o2)c(F)c1,0.69
7,N#Cc1ccc(Nc2ncc(Cc3c(F)cc(CC4CC4)cc3F)o2)cc1Cl,1.2
8,CCC(C)c1cc(F)c(Cc2cnc(Nc3ccc(C#N)c(Cl)c3)o2)c(F)c1 (racemic),0.15
9,N#Cc1ccc(Nc2ncc(Cc3c(F)cc(C4CC4)cc3F)o2)cc1Cl,1.5
10,CC(C)c1cc(F)c(Cc2cnc(Nc3ccc(C#N)c(Cl)c3)o2)c(F)c1,0.0072

# Same assay, conditions: mt2
row,SMILES,EC50
1,Cc1ccnc2c1NC(=O)c1cccnc1N2C1CC1 [NEVIRAPINE],Not Active
2,CC(C)(C)c1cc(Cl)c(Cc2cnc(Nc3ccc(C#N)c(Cl)c3)o2)c(Cl)c1,Not Active

# System: not listed separately
# Assay: (§1) Cytotoxicity in human MT2 cells assessed as inhibition of cell growth
# Format: cell-based
# Details: MT2 cells
row,SMILES,CC50 [µM]
1,Cc1ccnc2c1NC(=O)c1cccnc1N2C1CC1 [NEVIRAPINE],> 100

# System: MT2
# Assay: as §1
# Format: cell-based
# Details: mt2
row,SMILES,CC50 [µM]
1,Cc1cc(F)c(Cc2cnc(Nc3ccc(C#N)c(Cl)c3)o2)c(F)c1,31
2,CCOc1cc(F)c(Cc2cnc(Nc3ccc(C#N)c(Cl)c3)o2)c(F)c1,15
3,N#Cc1ccc(Nc2ncc(Cc3c(F)cc(F)cc3F)o2)cc1Cl,7
4,CCc1cc(F)c(Cc2cnc(Nc3ccc(C#N)c(Cl)c3)o2)c(F)c1,10
5,CCc1cc(F)c(Cc2cnc(Nc3ccc(Oc4cccnc4)c(Cl)c3)o2)c(F)c1,5
6,COCc1cc(F)c(Cc2cnc(Nc3ccc(C#N)c(Cl)c3)o2)c(F)c1,15
7,N#Cc1ccc(Nc2ncc(Cc3c(F)cc(CC4CC4)cc3F)o2)cc1Cl,29
8,CCC(C)c1cc(F)c(Cc2cnc(Nc3ccc(C#N)c(Cl)c3)o2)c(F)c1 (racemic),40
9,N#Cc1ccc(Nc2ncc(Cc3c(F)cc(C4CC4)cc3F)o2)cc1Cl,65
10,CC(C)c1cc(F)c(Cc2cnc(Nc3ccc(C#N)c(Cl)c3)o2)c(F)c1,5
11,CC(C)(C)c1cc(Cl)c(Cc2cnc(Nc3ccc(C#N)c(Cl)c3)o2)c(Cl)c1,6

# System: not listed separately
# Assay: Octanol-water partition coefficient, log P of the compound
# Format: physicochemical
# Details: not given
row,SMILES,logP
1,N#Cc1ccc(Nc2ncc(Cc3c(F)cc(C4CC4)cc3F)o2)cc1Cl,3.3
2,CC(C)c1cc(F)c(Cc2cnc(Nc3ccc(C#N)c(Cl)c3)o2)c(F)c1,3.7
